The source of these data is ChEMBL document CHEMBL5725778, “Condensed ring derivative, and preparation method, intermediate, pharmaceutical composition and use thereof” (2018).

This assay deals with T1, Solute carrier family 22 member 12 (Homo sapiens, UniProt Q96S37).
T1 sequence (Q96S37 whole entry): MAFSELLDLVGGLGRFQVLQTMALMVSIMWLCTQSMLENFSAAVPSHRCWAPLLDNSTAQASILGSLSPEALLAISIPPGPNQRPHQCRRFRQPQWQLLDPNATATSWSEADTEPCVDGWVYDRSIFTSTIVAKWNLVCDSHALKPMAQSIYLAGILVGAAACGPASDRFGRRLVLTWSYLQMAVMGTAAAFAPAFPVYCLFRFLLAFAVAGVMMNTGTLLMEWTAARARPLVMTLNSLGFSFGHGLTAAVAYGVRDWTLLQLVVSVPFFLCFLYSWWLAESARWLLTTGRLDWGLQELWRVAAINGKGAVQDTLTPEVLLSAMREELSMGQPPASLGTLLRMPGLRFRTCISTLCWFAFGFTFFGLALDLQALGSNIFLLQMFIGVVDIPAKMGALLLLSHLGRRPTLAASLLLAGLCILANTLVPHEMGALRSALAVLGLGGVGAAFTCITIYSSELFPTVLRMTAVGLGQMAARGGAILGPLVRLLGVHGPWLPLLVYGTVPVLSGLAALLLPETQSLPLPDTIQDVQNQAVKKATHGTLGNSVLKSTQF
Nature of the assay: hURAT1 Inhibition Assay: Human embryonic kidney cells (HEK293) was incubated in DMEM tissue culture medium, at 37° C., under 5% CO2 and 95% air atmosphere. TransIT-293 transfection agent (MIRUS BIO, Cat. No. MIR2706) and model URAT1 were used to construct transfected HEK293 cells. Transfected HEK293/hURAT1 cells were used to the test for 14C-uric acid transport activity. HEK293/hURAT1 cells were seeded in a 96-well plate (BD, Cat. No. 356461) fully coating with poly-D-lysine at a density of 6×10^4 cells per well. Cells were incubated at 37° C. for at least 12 hrs in the calorstat, and then washed with pre-heated washing buffer (125 mM sodium gluconate, 10 mM HEPES pH=7.4) at an amount of 200 μL per well to wash out the culture medium. The uric acid [8-14C] (ARC, Cat. No. ARC0513-250UCI) containing or not containing the compound was added to 50 μL HBSS buffer which was free of chloric ion each well (HBSS buffer: 125 mM sodium gluconate, 4.8 mM potassium gluconate, 1.3 mM calcium gluconate, 1.2 mM potassium dihydrogen phosphate, 1.2 mM magnesium sulfate, 5.6 mM glucose, 25 mM HEPES pH=7.4) to make the specific concentration of the uric acid 1 μCi per well. The incubating solution was removed after 10 mins incubation, followed by adding 100 μL cold washing buffer, after washing with this buffer for 3 times, the buffer was completely removed from the well.
As for `CC(C)(Sc1ccc2cncc(-c3ccc(C#N)c4ccccc34)c2c1)C(=O)O`, the concentration for half-maximal inhibition (IC50) – broadly, the midpoint of a concentration-inhibition curve – is 8 nM.

Regarding `C[C@@H](CC(=O)O)c1cc2cncc(-c3ccc(C#N)cc3)c2s1`, the IC50 stood at 1860 nM.

With `C[C@H](CC(=O)O)c1cc2cncc(-c3ccc(C#N)c4ccccc34)c2s1`, the IC50 is 580 nM.

With `C[C@H](Oc1ccc2cncc(-c3ccc(C#N)cc3)c2c1)C(=O)O`, the IC50 worked out at 2690 nM.

As for `C[C@H](CC(=O)O)c1cc2cncc(-c3ccc(C#N)cc3)c2s1`, the IC50 came out at 38 nM.

On to `C[C@@H](CC(=O)O)c1cc2c(-c3ccc(C#N)c4ccccc34)cncc2s1`, for which the IC50 came to 37 nM.

With `C[C@@H](CC(=O)O)c1cc2cncc(-c3ccc(C#N)c4ccccc34)c2s1`, the IC50 was found to be 10 nM.

Consider `C[C@@H](Oc1ccc2cncc(-c3ccc(C#N)cc3)c2c1)C(=O)O`, for which the IC50 stood at 5520 nM.

Regarding `C[C@H](CC(=O)O)c1cc2c(-c3ccc(C#N)c4ccccc34)cncc2s1`, the IC50 came to 11 nM.
